“And” between values parts separate entries of the source, which are not always exact repeats. Equal values may be shown once. “Also recorded” adds a separate entry of the source.
Experiments:
[1] = Single dose toxicity study, i.v. occidiofungin in 1.5% hydroxy propyl-beta-cyclodextrin/PBS; assay type: in vivo, mice
Description: Female BALB/c mice at age of 6-8 weeks old were used. These mice were purchased from Harlan and allowed to acclimate at least 2 weeks after arrival. They were housed on a 12 hour light-dark cycle in a temperature and humidity controlled animal facility that is accredited by the American Association for Accreditation of Laboratory Animal Care. Animal care and use were in accord with NIH Guidelines and Texas A&M University regulations. Protocols used for the mice models were done in accordance to the methods reported by Luster et al. (See Reference 12).
Occidiofungin was produced as previously described and aliquoted and lyophilized into 100 μg quantities in 1.8 mL centrifuge tubes. […] Mice (5 mice per group) were given occidiofungin dissolved in 1.5% hydroxy propyl-beta-cylcodextrin suspended in phosphate buffered saline (PBS). […] For the experiments, occidiofungin was administered by intravenous (i.v.) injection into the tail vein at a single dose at 5 mg/kg of body weight. The excipient control in each experiment matched the vehicle. Body weight and clinical signs (movement, posture, skin lesions, appearance of fur indicating normal grooming, and behaviors) were recorded following administration at one, four, eight, sixteen, and twenty-four hours. Necropsies were performed at 24 hours following administration of occidiofungin.
Blood and tissue samples from animals dosed at 5 mg/kg of body weight with occidiofungin in 1.5% hydroxy propyl-beta-cylcodextrin suspended in PBS were taken 24 hours following excipient or drug administration. Mice were anesthetized with isofluorane. Blood was then taken from the retroorbital plexus or heart puncture for serum biochemistry assays (alkaline phosphatase, alanine aminotransferase, aspartate aminotransferase, albumin, and blood urea nitrogen) and hematology (white blood cell count and white blood cell differentiation). Body weight was measured immediately before treatment and 24 hours later before the mice were fully anesthetized and fixed in 10% neutral buffered formalin. Histological examination was performed on a portion of each organ by using routine paraffin embedding technique and staining with hematoxylin and eosin (H & E) (See Reference 14). All the sections were examined under light microscopy for pathological changes by a co-author of this paper, who is a board certified veterinary pathologist.

[2] = tested on: normal human neonatal dermal fibroblasts cell line; test: In vitro toxicity screening (CellTiter-Blue cell viability, 48 hours); assay type: cell-based
Source text: Cancer cell lines, OVCAR8 (Center for Cancer Research (OVAR.8; Sample ID 25)), SW1088 (ATCC-HTB-12), and Toledo (ATCC CRL-2631), and normal human neonatal dermal fibroblasts cell line (ATCC-PCS-201-010) were passaged and prepped as previously described (See References 15-17). OVCAR8, SW1088, and Toledo2631 are ovarian, brain, and B-cell lymphoma cancer cell lines, respectively. This panel of cell lines was chosen based, in part, on their being from very different cancer types in order to discern whether occidiofungin would have a broad spectrum activity towards cancer cell lines of vastly different parental organ/cell types. OVCAR8 cells are widely used in the field of cancer therapeutic research as a panel representative of ovarian cancer in screening experiments for identifying both ovarian-specific and non-specific (i.e., anti-neoplastic activity on multiple cancer cell types) therapeutic agents (See References 28-30). Similarly, SW1088 cells are widely used in the field of cancer therapeutic research as a panel representative of glioma (the most common brain cancer) in screening experiments for identifying both glioma-specific and non-specific therapeutic agents (See References 31-32). Toledo 2631 cells are derived from lymphoma cells, and are used in the field of cancer therapeutic research for identifying lymphoma-specific and non-specific therapeutic agents (See, e.g., Reference 33). […] Cell counts per plate were calculated to be approximately 50,000 cells/mL. A 10× stock solution of occidiofungin was prepared at 65 μM concentration in 10% dimethyl sulfoxide (DMSO). Two-fold serial dilutions on a 96 well plate were set up in triplicate with starting concentration of 6.5 μM and a final concentration of 3 nM. Bortezomib was used as a comparator for toxicity against human fibroblast and was serially diluted two-fold starting at a concentration of 5 μM and ending at 2.5 nM. Bortezomib is used clinically against myeloma and lymphoma cancers in patients refractory against other chemotherapeutics (See References 18, 19). Furthermore, bortezomib has shown efficacy against a variety of solid tumors and cancer cell lines, making this an appropriate comparison molecule in the panel of cell lines chosen (See References 34-35). The plates were then incubated at 37° C. in 5% CO2 for 48 hours. After 48 hours, cell viability was monitored using CellTiter-Blue (Promega) cell viability assay by measuring the fluorescence emission of a redox activated dye (579EX/584EM) using a POLARstar Omega microplate reader (BMG Labtech).

yeast cells = settings: low drug concentrations (1 μg/ml, around 833 nM), Reference 2; cited from earlier work
[3] = tested on: Saccharomyces cerevisiae gene deletion mutants; settings: Δycal vs wild-type, Reference 2; cited from earlier work
[4] = single IV dose 5 mg/kg, 24 hours
[5] = single IV dose 5 mg/kg, 24 hours, mean, 5 mg/kg

Substance: occidiofungin
- behavioral response at 1 hour and to a lesser extent at 4 hours post i.v. administration ([1]; 5 mg/kg i.v.): more lethargic than excipient treated mice and had ruffled fur
- mice behavior by 8, 16, and 24 hour post injection ([1]; 5 mg/kg i.v.): appeared to be normal
- histological examination of organ tissues ([1]; 5 mg/kg i.v., 24 hours, esophagus, stomach, small intestine, colon, liver, pancreas, spleen, kidneys, lungs, heart, brain): no histological abnormalities; also recorded: No observable differences
- ratio of AST to ALT in all treated mice ([1]; 5 mg/kg i.v., 24 hours, ratio less than one indicative of liver damage): greater than one
- average weight loss ([1]; single 5 mg/kg i.v. dose, 24 hours): 6.2%
- Hematology: Lymphocytes % [1, 4]: 54 ± 15%
- Hematology: Neutrophils % [1, 4]: 43 ± 14%
- Hematology: Platelet estimate [1, 4]: 39 ± 21 xK/ul
- Hematology: WBC estimate [1, 4]: 4750 ± 1225
- Serum Biochemistry: ALP [1, 4]: 99 ± 34 U/l
- Serum Biochemistry: Albumin [1, 4]: 3.1 ± 0.6 g/dL
- Serum Biochemistry: BUN [1, 4]: 29.6 ± 5 mg/dL
- Weight Change % ([1]; single IV dose 5 mg/kg, 24 hours after administration, mean ± SD): −6.2 ± 9.9%
- Serum Biochemistry: ALT (SGPT) [1, 5]: 521 U/l and 521 ± 652 U/l
- Serum Biochemistry: AST (SGOT) [1, 5]: 765 U/l and 765 ± 692 U/l
- toxicity observed in mice ([1]; single i.v. dose at 5 mg/kg): no significant toxicity
- cancer cell lines relative to normal human primary dermal fibroblasts cell line ([2]; TC50 of OVCAR8, SW1088, Toledo vs fibroblasts): approximately eight-fold higher
- CC50 ([2]; human fibroblast cell line, 48 hours, mean of three independent experiments, read-out: TC50 (the source's name)): 0.533 µM
- activity relative to bortezomib against the human fibroblast cell line ([2]; occidiofungin vs bortezomib): approximately eight-fold higher
- morphological change of yeast cells (yeast cells): appeared to shrink in size
- increase in resistance on deletion of the ycal gene [3]: 2 fold
